In ChEMBL document CHEMBL3046322, “Insect growth regulatory effects by diterpenes from Calceolaria talcana Grau & Ehrhart (Calceolariaceae: Scrophulariaceae) against Spodoptera frugiperda and Drosophila melanogaster” (2013):
Values after ≈ are worked out from the molar mass of the structure shown. Active and inactive are the calls of the source. The rule behind the calls is not given here.

Assays:
[1] = tested on: Drosophila melanogaster; test: Insecticidal activity against Drosophila melanogaster larvae fed with compound incorporated diet assessed as mortality at 10 ug/ml after 72 hr by not choice test (reference value: 0%); type: functional
[2] = tested on: Spodoptera frugiperda; test: Growth inhibitory activity against first-instar larval stage of Spodoptera frugiperda (fall armyworm) fed with compound incorporated diet assessed as weight gained at 50 ug/ml after 21 days (reference value: 100%); type: functional
[3] = tested on: Spodoptera frugiperda; test: Growth inhibitory activity against Spodoptera frugiperda (fall armyworm) larvae fed with compound containing diet assessed as relative growth index at 35 ug/ml (reference value: 1.0 no_unit); type: functional
[4] = tested on: Spodoptera frugiperda; test: Growth inhibitory activity against first-instar larval stage of Spodoptera frugiperda (fall armyworm) fed with compound incorporated diet assessed as length gained at 5 ug/ml after 21 days (reference value: 100%); type: functional
[5] = tested on: Spodoptera frugiperda; test: Growth inhibitory activity against Spodoptera frugiperda (fall armyworm) larvae fed with compound containing diet assessed as reduction in pupae weight at 25 ug/ml; type: functional, organism-based
[6] = tested on: Spodoptera frugiperda; test: Acute toxicity against last larval stage of Spodoptera frugiperda (fall armyworm) assessed as mortality applied topically onto abdomen measured after 7 days; type: functional; details: topical, 168 h
[7] = tested on: Spodoptera frugiperda; test: Growth inhibitory activity against Spodoptera frugiperda (fall armyworm) larvae fed with compound containing diet assessed as relative growth index at 10 ug/ml (reference value: 1.0 no_unit); type: functional
[8] = tested on: Spodoptera frugiperda; test: Growth inhibitory activity against Spodoptera frugiperda (fall armyworm) larvae fed with compound containing diet assessed as relative growth index at 20 ug/ml (reference value: 1.0 no_unit); type: functional
[9] = tested on: Spodoptera frugiperda; test: Growth inhibitory activity against Spodoptera frugiperda (fall armyworm) larvae fed with compound containing diet assessed as growth index at 10 ug/ml (reference value: 0.95 +/-0.02 no_unit); type: functional
[10] = tested on: Spodoptera frugiperda; test: Insecticidal activity against first-instar larval stage of Spodoptera frugiperda (fall armyworm) fed with compound incorporated diet assessed as mortality at 50 to 100 ug/ml after 7 days; type: functional
[11] = tested on: Spodoptera frugiperda; test: Growth inhibitory activity against first-instar larval stage of Spodoptera frugiperda (fall armyworm) fed with compound incorporated diet assessed as weight gained at 35 ug/ml after 7 days (reference value: 100%); type: functional; design: scale not given: the % may be the effect or the level left
[12] = tested on: Spodoptera frugiperda; test: Growth inhibitory activity against first-instar larval stage of Spodoptera frugiperda (fall armyworm) fed with compound incorporated diet assessed as length gained at 10 ug/ml after 21 days (reference value: 100%); type: functional
[13] = tested on: Spodoptera frugiperda; test: Growth inhibitory activity against first-instar larval stage of Spodoptera frugiperda (fall armyworm) fed with compound incorporated diet assessed as weight gained at 20 ug/ml after 21 days (reference value: 100%); type: functional
[14] = tested on: Spodoptera frugiperda; test: Growth inhibitory activity against first-instar larval stage of Spodoptera frugiperda (fall armyworm) fed with compound incorporated diet assessed as length gained at 20 ug/ml after 21 days (reference value: 100%); type: functional; design: scale not given: the % may be the effect or the level left
[15] = tested on: Drosophila melanogaster; test: Insecticidal activity against Drosophila melanogaster larvae fed with compound incorporated diet assessed as mortality after 72 hr by not choice test; type: functional
[16] = tested on: Spodoptera frugiperda; test: Growth inhibitory activity against po dosed Spodoptera frugiperda (fall armyworm) larvae assessed as promotion of apolysis to fifth instar with ecdysis inhibition at 5 to 20 ug/ml; type: functional, organism-based
[17] = tested on: Spodoptera frugiperda; test: Acute toxicity against last larval stage of Spodoptera frugiperda (fall armyworm) assessed as survival at 5 ug/ml applied topically onto abdomen measured after 24 hr (reference value: 98.8 +/-3.5%); type: functional
[18] = tested on: Spodoptera frugiperda; test: Acute toxicity against last larval stage of Spodoptera frugiperda (fall armyworm) assessed as survival at 10 ug/ml applied topically onto abdomen measured after 24 hr (reference value: 98.8 +/-3.5%); type: functional
[19] = tested on: Spodoptera frugiperda; test: Growth inhibitory activity against first-instar larval stage of Spodoptera frugiperda (fall armyworm) fed with compound incorporated diet assessed as length gained at 10 ug/ml after 7 days (reference value: 100%); type: functional
[20] = tested on: Spodoptera frugiperda; test: Insecticidal activity against first-instar larval stage of Spodoptera frugiperda (fall armyworm) fed with compound incorporated diet assessed as mortality at 40 ug/ml after 7 days; type: functional, organism-based
[21] = tested on: Spodoptera frugiperda; test: Insecticidal activity against first-instar larval stage of Spodoptera frugiperda (fall armyworm) fed with compound incorporated diet assessed as mortality at 20 ug/ml after 7 days (reference value: 5.6%); type: functional; details: 168 h
[22] = tested on: Spodoptera frugiperda; test: Growth inhibitory activity against Spodoptera frugiperda (fall armyworm) larvae fed with compound containing diet assessed as growth index at 35 ug/ml (reference value: 0.95 +/-0.02 no_unit); type: functional
[23] = tested on: Spodoptera frugiperda; test: Insecticidal activity against first-instar larval stage of Spodoptera frugiperda (fall armyworm) fed with compound incorporated diet assessed as mortality at 50 ug/ml after 21 days (reference value: 5.6%); type: functional; details: 504 h
[24] = tested on: Spodoptera frugiperda; test: Growth inhibitory activity against first-instar larval stage of Spodoptera frugiperda (fall armyworm) fed with compound incorporated diet assessed as weight gained at 35 ug/ml after 21 days (reference value: 100%); type: functional
[25] = tested on: Spodoptera frugiperda; test: Growth inhibitory activity against first-instar larval stage of Spodoptera frugiperda (fall armyworm) fed with compound incorporated diet assessed as weight gained at 5 ug/ml after 21 days (reference value: 100%); type: functional
[26] = tested on: Spodoptera frugiperda; test: Insecticidal activity against first-instar larval stage of Spodoptera frugiperda (fall armyworm) fed with compound incorporated diet assessed as mortality at 35 ug/ml after 21 days (reference value: 5.6%); type: functional; details: 504 h
[27] = tested on: Spodoptera frugiperda; test: Insecticidal activity against first-instar larval stage of Spodoptera frugiperda (fall armyworm) fed with compound incorporated diet assessed as mortality at 10 ug/ml after 21 days (reference value: 5.6%); type: functional; details: 504 h
[28] = tested on: Drosophila melanogaster; test: Insecticidal activity against Drosophila melanogaster larvae fed with compound incorporated diet assessed as mortality at 50 ug/ml after 72 hr by not choice test (reference value: 0%); type: functional
[29] = tested on: Spodoptera frugiperda; test: Growth inhibitory activity against first-instar larval stage of Spodoptera frugiperda (fall armyworm) fed with compound incorporated diet assessed as weight gained at 10 ug/ml after 7 days (reference value: 100%); type: functional; design: scale not given: the % may be the effect or the level left
[30] = tested on: Spodoptera frugiperda; test: Insecticidal activity against first-instar larval stage of Spodoptera frugiperda (fall armyworm) fed with compound incorporated diet assessed as mortality at 5 ug/ml after 21 days (reference value: 5.6%); type: functional; details: 504 h
[31] = tested on: Spodoptera frugiperda; test: Growth inhibitory activity against Spodoptera frugiperda (fall armyworm) larvae fed with compound containing diet assessed as reduction in survival pupation at >10 ug/ml; type: functional
[32] = tested on: Spodoptera frugiperda; test: Growth inhibitory activity against first-instar larval stage of Spodoptera frugiperda (fall armyworm) fed with compound incorporated diet assessed as length gained at 50 ug/ml after 7 days (reference value: 100%); type: functional
[33] = tested on: Spodoptera frugiperda; test: Growth inhibitory activity against first-instar larval stage of Spodoptera frugiperda (fall armyworm) fed with compound incorporated diet assessed as weight gained at 10 ug/ml after 21 days (reference value: 100%); type: functional
[34] = tested on: Spodoptera frugiperda; test: Growth inhibitory activity against first-instar larval stage of Spodoptera frugiperda (fall armyworm) fed with compound incorporated diet assessed as weight gained at 50 ug/ml after 7 days (reference value: 100%); type: functional; design: scale not given: the % may be the effect or the level left
[35] = tested on: Spodoptera frugiperda; test: Growth inhibitory activity against first-instar larval stage of Spodoptera frugiperda (fall armyworm) fed with compound incorporated diet assessed as length gained at 5 ug/ml after 7 days (reference value: 100%); type: functional; design: scale not given: the % may be the effect or the level left
[36] = tested on: Spodoptera frugiperda; test: Insecticidal activity against first-instar larval stage of Spodoptera frugiperda (fall armyworm) fed with compound incorporated diet assessed as mortality at 35 ug/ml after 7 days (reference value: 5.6%); type: functional; details: 168 h
[37] = tested on: Spodoptera frugiperda; test: Growth inhibitory activity against Spodoptera frugiperda (fall armyworm) larvae fed with compound containing diet assessed as growth index at 5 ug/ml (reference value: 0.95 +/-0.02 no_unit); type: functional

Row | SMILES | mortality at 10 µg/mL [1] [%] | Weight gain relative to control [2] [%] | Growth_index [3] | Length gained (% of control) [4] [%] | inhibition [5] | LD50 [6] [µg/mL] | Growth_index [7] | Growth_index [8] | Growth_index [9] | mortality [10] [%] | Activity [11] [%] | Length gained relative to control [12] [%] | Weight gain relative to control [13] [%] | Activity [14] [%] | LC50 [15] [µg/mL] | Activity [16] | Activity [17] [%] | Activity [18] [%] | Larval length gained (% of control) [19] [%] | mortality [20] | further results
1 | C=CC(C)(C)C1=C(O)C(=O)c2ccccc2C1=O | 30 | 0 | 0.1 | 64.3 | Active | 3.64 | 0.45 | 0.12 | 0.41 | 100 | 5 | 39.8 | 9 | 4.1 | 15.8 (≈ 65.2 µM) | Active | 35.5 | 6.8 | 24.2 | Active | mortality at 20 µg/mL [21]: 91.7%; Growth_index [22]: 0.09; mortality at 50 µg/mL [23]: 100%; Weight gain relative to control [24]: 7.8%; Larval weight gain relative to control [25]: 35.6%; mortality at 35 µg/mL [26]: 100%; mortality at 10 µg/mL [27]: 41.7%; mortality at 50 µg/mL [28]: 100%; Activity [29]: 29.3%; mortality at 5 µg/mL [30]: 66.7%; inhibition (INH) [31]: 0%; Length gain relative to control [32]: 0%; Weight gain (% of control) [33]: 27.7%; Activity [34]: 0%; Activity [35]: 50.8%; mortality at 35 µg/mL [36]: 95.8%; Growth_index [37]: 0.71
2 | C=C[C@]1(C)CC[C@H]2C(=CC[C@@H]3[C@](C)(CO)CC[C@@H]4C[C@@]432)C1 | 30 | 0 | 0.1 | 55 | Active | 3.02 | 0.25 | 0.19 | 0.21 | 100 | 1.4 | 30.8 | 0 | 0 | 9.2 (≈ 32.1 µM) | Active | 27 | 3.5 | 39 | Active | mortality at 20 µg/mL [21]: 55.8%; Growth_index [22]: 0.09; mortality at 50 µg/mL [23]: 100%; Weight gain relative to control [24]: 0%; Larval weight gain relative to control [25]: 20.1%; mortality at 35 µg/mL [26]: 100%; mortality at 10 µg/mL [27]: 68.6%; Activity [29]: 17.1%; mortality at 5 µg/mL [30]: 55.8%; inhibition (INH) [31]: 0%; Length gain relative to control [32]: 0%; Weight gain (% of control) [33]: 10.6%; Activity [34]: 0%; Activity [35]: 68.7%; mortality at 35 µg/mL [36]: 98.4%; Growth_index [37]: 0.41
